# Measurements taken from patent US5045543A, “5-amino or substituted amino 1,2,3-triazoles useful as antimetastatic agents” (Merck & Co., Inc., priority 1989, dated 1991).
# What was measured:
# [1] = system: keratinocyte proliferation; assay: Keratinocyte proliferation measured by metaphase arrest with colchicine; type: in vivo, pig
# [2] = system: nucleotide pools in mammalian cells; assay: Inhibition of nucleotide biosynthesis: incorporation of hypoxanthine, adenine, formate into nucleotide pools of mammalian cells; type: cell-based; details: 1 μg/ml
# rat PMN's = assay: Eicosanoid production in rat PMN's; type: cell-based; details: 1 μg/ml
# P388 leukemia = assay: Life prolongation assay, P388 leukemia in nude mice; type: in vivo; details: for life prolongation: control survival 15 to 20 days
# Procedure: The topical antiproliferative activities, along with in vitro antiproliferative activities against human keratinocytes and fibroblasts, provide the biological data in support of the claimed utility:
# The doses used were 240, 120 and 60 mg/kg delivered i.p. once per day for five days.
# [3] = system: a number of cell types including the Normal Human Epidermal Keratinocytes; assay: Antiproliferative activity (general statements); type: cell-based; details: in vitro; Compound A at the same concentrations (1 μg/ml)
# [4] = system: PMT-6 fibroscaroma tumors; assay: Antimetastatic activity against PMT-6 fibrosarcoma tumors in mice (metastases in lung, primary tumor weight); type: in vivo, Black Charles River female mice (C57BL-6j); details: for range of primary tumor weights: control 3.1-8.4 g; for average weight of the primary tumors: mice surviving >17 days, control 6.0 g; for Number of Metastases, size 0.01-0.1 mm: control 24; for Number of Metastases, size <0.01 mm: control 102; for Number of Metastases, size >0.01 mm: size range >0.01 mm (so in the source)
# Procedure: Black Charles River female mice (C57BL-6j) were injected in the flank muscle on day 1 with a cell suspension obtained from mincing PMT-6 fibroscaroma tumors. This highly metastatic tumor produces a large number of metastases in the lung during development of the primary tumor, so that the efficacy of potential antimetastatic agents can be contrasted with their ability to inhibit primary tumor growth in the same model. The mice were in 4 groups of 6 and were dosed daily with a 0.5% methylcellulose suspension of 5-amino-1-(4-[4-chlorobenzoyl]-3,5-dichlorobenzyl)-1,2,3-triazole-4-carboxamide, the active agent, given by gavage. Fresh drug suspensions were prepared daily. The doses, in 250 μL, were 0, 100, 250, and 500 mg/kg.
# The average weights of the primary tumors retrieved from mice who survived longer than 17 days were: Control 6.0 g. (3.1-8.4 g); 100 mg/kg, 2.9 g. (2.1-5.6 g.); 250 mg/kg, 3.0 g (1.3-4.6 g.); and 500 mg/kg, 3.3 g. (2.0-6.5 g.).
# The lungs of the mice were sectioned at intervals throughout the entire lung after fixing in 10% formalin, and the sections stained with H&E. The metastases found ranged from micrometases of just a few cells to enormous ones that could be easily seen without a microscope.
# intact pig skin = assay: Labelled thymidine incorporation into intact pig skin; details: in vivo
# [5] = system: Normal Human Epidermal Keratinocytes (NHEK); assay: Inhibition of growth of Normal Human Epidermal Keratinocytes (NHEK); type: cell-based; details: for inhibition at 0.5 µg/mL / inhibition at 1 µg/mL / inhibition at 2 µg/mL: Homo sapiens, NHEK
# Procedure: The inhibition of PRPP biosynthesis by Compound A and analogs supported the claimed use of the compounds as antiproliferative agents, since this inhibition should prevent all de novo and salvage biosynthesis of purine and pyrimidine nucleotides. […] The data from NHEK's is particularly important since it is the overproliferation of these cells that occurs in psoriasis.
# In these experiments Murine keratinocyte transformed cell line PAPp26 was cultured in Dulbecco's modified Eagle's medium with 10% fetal calf serum at 37° C., 5% CO2. Each well of a 96 well plate was seeded with 2000 cells in 200 μl of each drug dilution in duplicate. A plate was stopped and fixed for each time point, stained with Giemsa and then read in a Titertek plate reader at 650 nm, and the absorbances were calibrated with known cell numbers on control plates. NHEK's were obtained from Clonetics Corporation at the secondary stage. Antiproliferative assays were done as for the murine keratinocytes. Media (KGM) without serum was supplied by Clonetics also. Normal Human Fibroblasts and MDBK cells were grown under the same conditions except that MDBK cells were grown at 41° C.
# macrophages = assay: LTC4 and PGE2 production and lysosomal enzyme release in macrophages; type: cell-based; details: 1 μg/ml
# 5-lipoxygenase = assay: Direct inhibition of 5-lipoxygenase; type: biochemical
structure (smiles),measurement,setting,value
"NC(=O)c1nnn(Cc2cc(Cl)c(C(=O)c3ccc(Cl)cc3)c(Cl)c2)c1N [Compound A, 5-amino-1-(4-(4-chlorobenzoyl)-3,5-dichlorobenzyl)-1,2,3-triazole-4-carboxamide]",inhibition of keratinocyte proliferation,[1],inhibits
same,adenine incorporation into nucleotide pools,[2]; mammalian cells,disrupted
same,formate incorporation into nucleotide pools,[2]; mammalian cells,disrupted
same,hypoxanthine incorporation into nucleotide pools,[2]; mammalian cells,disrupted
same,inhibition of nucleotide biosynthesis,[2]; variety of mammalian cells in monolayer culture,efficacy
same,inhibition of 5-HETE production,rat PMN's,inhibit
same,inhibition of HHT production,rat PMN's,inhibit
same,inhibition of LTB4 production,rat PMN's,inhibit
same,life prolongation,P388 leukemia; 60 mg/kg i.p. once per day for five days,127%
same,life prolongation,P388 leukemia; 120 mg/kg i.p. once per day for five days,124%
same,life prolongation,P388 leukemia; 240 mg/kg i.p. once per day for five days,134%
same,in vivo activity against P388 leukemia,"P388 leukemia; 240, 120, 60 mg/kg i.p.",significant in vivo activity
same,minimal effective dose,"P388 leukemia; Mus musculus, ip, P388 leukemia, nude mice, read-out: active dose in life prolongation assay",≥ 60 mg/kg/day
same,antiproliferative activity,[3],antiproliferative at the same concentrations
same,range of primary tumor weights,[4]; 100 mg/kg by gavage daily,2.1 to 5.6 g
same,average weight of the primary tumors,[4]; 100 mg/kg by gavage daily,2.9 g
same,range of primary tumor weights,[4]; 250 mg/kg by gavage daily,1.3 to 4.6 g
same,average weight of the primary tumors,[4]; 250 mg/kg by gavage daily,3.0 g
same,range of primary tumor weights,[4]; 500 mg/kg by gavage daily,2.0 to 6.5 g
same,average weight of the primary tumors,[4]; 500 mg/kg by gavage daily,3.3 g
same,effect on the primary tumor,"[4]; 100, 250, 500 mg/kg by gavage",there may be a small effect of the drug on the primary tumor
same,effect on number of lung metastases,[4]; at even the lowest dose (100 mg/kg/d oral),a large drop in the number of metastases at even the lowest dose
same,antimetastatic activity,"[4]; mouse, in vivo",has exhibited such antimetastatic activity
same,"Number of Metastases, size 0.01-0.1 mm",[4]; oral 100 mg/kg/d,0
same,"Number of Metastases, size <0.01 mm",[4]; oral 100 mg/kg/d,6
same,"Number of Metastases, size >0.01 mm",[4]; oral 100 mg/kg/d,0
same,"Number of Metastases, size 0.01-0.1 mm",[4]; oral 250 mg/kg/d,3
same,"Number of Metastases, size <0.01 mm",[4]; oral 250 mg/kg/d,9
same,"Number of Metastases, size >0.01 mm",[4]; oral 250 mg/kg/d,0
same,"Number of Metastases, size 0.01-0.1 mm",[4]; oral 500 mg/kg/d,3
same,"Number of Metastases, size <0.01 mm",[4]; oral 500 mg/kg/d,6
same,"Number of Metastases, size >0.01 mm",[4]; oral 500 mg/kg/d,1
same,inhibition of labelled thymidine incorporation into intact pig skin,intact pig skin,inhibits
same,"NHEK growth, ABS-background (650 nm)","[5]; 0.5 μg/ml, day 4, control .090",.085
same,"NHEK growth, ABS-background (650 nm)","[5]; 0.5 μg/ml, day 5, control .190",.115
same,"NHEK growth, ABS-background (650 nm)","[5]; 0.5 μg/ml, day 7, control .390",.190
same,"NHEK growth, ABS-background (650 nm)","[5]; 1.0 μg/ml, day 4, control .090",.040
same,"NHEK growth, ABS-background (650 nm)","[5]; 1.0 μg/ml, day 5, control .190",.050
same,"NHEK growth, ABS-background (650 nm)","[5]; 1.0 μg/ml, day 7, control .390",.120
same,"NHEK growth, ABS-background (650 nm)","[5]; 2.0 μg/ml, day 4, control .090",.005
same,"NHEK growth, ABS-background (650 nm)","[5]; 2.0 μg/ml, day 5, control .190",.010
same,"NHEK growth, ABS-background (650 nm)","[5]; 2.0 μg/ml, day 7, control .390",.050
same,inhibition at 0.5 µg/mL,"[5]; 96 h, 0.5 μg/ml, day 4",6%
same,inhibition at 1 µg/mL,"[5]; 96 h, 1.0 μg/ml, day 4",56%
same,inhibition at 2 µg/mL,"[5]; 96 h, 2.0 μg/ml, day 4",94%
same,inhibition at 0.5 µg/mL,"[5]; 120 h, 0.5 μg/ml, day 5",40%
same,inhibition at 1 µg/mL,"[5]; 120 h, 1.0 μg/ml, day 5",74%
same,inhibition at 2 µg/mL,"[5]; 120 h, 2.0 μg/ml, day 5",95%
same,inhibition at 0.5 µg/mL,"[5]; 168 h, 0.5 μg/ml, day 7",51%
same,inhibition at 1 µg/mL,"[5]; 168 h, 1.0 μg/ml, day 7",70%
same,inhibition at 2 µg/mL,"[5]; 168 h, 2.0 μg/ml, day 7",87%
same,inhibition of growth of NHEK,[5]; approximately 1.0 μg/ml,substantial inhibition
same,genotoxicity,Toxicity / genotoxicity,lack of toxicity or genotoxicity
same,toxicity,Toxicity / genotoxicity,lack of toxicity or genotoxicity
same,inhibition of LTC4 production,macrophages,inhibit
same,inhibition of PGE2 production,macrophages,inhibit
same,inhibition of lysosomal enzyme release,macrophages,inhibit
same,direct inhibition of 5-lipoxygenase,5-lipoxygenase,no evidence of direct inhibition
